Tested on: de novo fatty acid synthesis
Assay: Lipid metabolite profile of plasma, heart, liver and inguinal adipose of CL316,243-treated mice (trial 2; Tables 7 and 8)
Type: in vivo
Settings: for 14:0 / 16:0 / 16:1n7 / 18:0 / 18:1n7 / 18:1n9 / Saturates / Total / Total n7 / Total n9 / Total nMole of FA: mean
Source text: It is understood that the described methods can be used to analyze lipid metabolites from other subjects, including particularly animals other than mice.
Mouse tissue and plasma samples were a generous donation to Lipomics Technologies, Inc., from Dr. Edward Leiter of the Jackson Laboratory (Bar Harbor, Me.). Samples included the plasma, heart, liver and inguinal adipose of mice treated with pharmaceuticals or their corresponding controls.
In trial 2, male, inbred NON mice were fed a control with or without the presence of the β-3 adrenergic agonist CL316,243 for four weeks (at 0.001% CL316,243 by weight in the dietary chow).
In both studies, five treated and five control mice were used. Following the treatments and the killing of the mice, tissues and plasma were taken, chilled to −80 ° C. and shipped to the analysis laboratory at Lipomics Technologies in a frozen state.
Tissue processing and lipid extraction, including provision of internal standards, was carried out essentially as described in Watkins et al. (J. Lipid Res. Papers in Press, 10.1184/jlf.M200169-JLF200, published August 16, 2002), and in co-owned international application PCT/US02/21426, entitled “GENERATING, VIEWING, INTERPRETING, AND UTILIZING A QUANTITATIVE DATABASE OF METABOLITES,” both of which are incorporated in their entirety herein by reference.
The separation of lipid classes was performed in some instance by preparative thin-layer chromatography (TLC). To remove any residual metal or other damaging contaminants on the TLC plates, each plate was washed prior to use. Washing the plates is a three-step process that involves impregnating each plate with ethylenediamine tetraacetic acid (EDTA) and rinsing the plates once with methanol and once with chloroform. Each plate is first impregnated with 1 mM EDTA, pH 5.5, by ascending development using the method of Ruiz (J. Lipid Res. 38, 1482-1489, 1997). After each plate was completely developed, it was dried in air overnight. Once dry, each plate was developed in methanol, dried, and developed in chloroform in the same direction as the development with EDTA. The washed plates were then dried in air. Just prior to use, each plate was activated by heating to 110° C. for 10 minutes.
To prepare the TLC chamber for chromatography, Whatman (Clifton, N.J.) filter paper was cut into 20×80-cm strips and wrapped around the inside wall of a 30×60×10-cm glass development chamber. One hundred milliliters of the appropriate mobile phase was added to the chamber, and the chambers were sealed and allowed to equilibrate. Chambers were considered equilibrated when the solvent front had completely ascended the filter paper. The mobile phase employed for the separation of phospholipid classes (lyso-phospholipids, sphingomyelin, phosphatidylcholine, phosphatidylserine, phosphatidylethanolamine and cardiolipin) was a modification of the solvent system described by Holub and Skeaf (“Nutritional regulation of cellular phosphatidylinositol,” in Methods in Enzymology, ed. Conn, P. M. (Academic Press, Inc., Orlando), pp. 234-243, 1987) consisting of chloroform/methanol/acetic acid/water (100:67:7:4, by volume).
For the separation of neutral lipid classes (free fatty acids, free sterols, triacylglycerides and cholesterol esters), a solvent system consisting of petroleum ether/diethyl ether/acetic acid (80:20:1, by volume) was used (Mangold, Thin Layer Chromatography—A Laboratory Handbook (Springer-Verlag, New York), 1969).
After the TLC plate was activated, the sample extracts were spotted onto the activated plate. As a general rule, samples were spotted at an estimated concentration such that no single lipid class was present at more than 25 jig per centimeter of plate width following chromatography. This ensured that the plate was not overloaded and minimized the risk of cross-contamination between lipid classes (cross-contamination is readily identified during sample analysis as each lipid class contains unique internal standards). […]

C[C@H](Cc1ccc2c(c1)OC(C(=O)[O-])(C(=O)[O-])O2)NC[C@H](O)c1cccc(Cl)c1.[Na+].[Na+] [CL316,243]
14:0 (Adipose, CE): 65.2 nanomoles per gram | 16:0 (Adipose, CE): 326.2 nanomoles per gram | 16:1n7 (Adipose, CE): 85.7 nanomoles per gram | 18:0 (Adipose, CE): 72.1 nanomoles per gram | 18:1n7 (Adipose, CE): 50.6 nanomoles per gram | 18:1n9 (Adipose, CE): 344.4 nanomoles per gram | 14:0 (Adipose, FFA): 833.3 nanomoles per gram | 16:0 (Adipose, FFA): 6822.9 nanomoles per gram | 16:1n7 (Adipose, FFA): 2652.0 nanomoles per gram | 18:0 (Adipose, FFA): 1467.5 nanomoles per gram | 18:1n7 (Adipose, FFA): 864.3 nanomoles per gram | 18:1n9 (Adipose, FFA): 9845.4 nanomoles per gram | 14:0 (Adipose, PL): 74.4 nanomoles per gram | 16:0 (Adipose, PL): 1403.3 nanomoles per gram | 16:1n7 (Adipose, PL): 291.2 nanomoles per gram | 18:0 (Adipose, PL): 1249.1 nanomoles per gram | 18:1n7 (Adipose, PL): 118.1 nanomoles per gram | 18:1n9 (Adipose, PL): 794.7 nanomoles per gram | 14:0 (Adipose, TAG): 79501.6 nanomoles per gram | 16:0 (Adipose, TAG): 666399.1 nanomoles per gram | 16:1n7 (Adipose, TAG): 265948.0 nanomoles per gram | 18:0 (Adipose, TAG): 73800.5 nanomoles per gram | 18:1n7 (Adipose, TAG): 49837.1 nanomoles per gram | 18:1n9 (Adipose, TAG): 793227.6 nanomoles per gram | 14:0 (Adipose, lipid class CE): 4.5 percentage of total fatty acids | 16:0 (Adipose, lipid class CE): 24.4 percentage of total fatty acids | 16:1n7 (Adipose, lipid class CE): 6.8 percentage of total fatty acids | 18:0 (Adipose, lipid class CE): 5.1 percentage of total fatty acids | 18:1n7 (Adipose, lipid class CE): 3.5 percentage of total fatty acids | 18:1n9 (Adipose, lipid class CE): 26.2 percentage of total fatty acids | Saturates (Adipose, lipid class CE): 35.7 percentage of total fatty acids | Total (Adipose, lipid class CE): 100.0 percentage of total fatty acids | Total n7 (Adipose, lipid class CE): 10.3 percentage of total fatty acids | Total n9 (Adipose, lipid class CE): 28.8 percentage of total fatty acids | 14:0 (Adipose, lipid class FFA): 2.6 percentage of total fatty acids | 16:0 (Adipose, lipid class FFA): 21.7 percentage of total fatty acids | 16:1n7 (Adipose, lipid class FFA): 9.2 percentage of total fatty acids | 18:0 (Adipose, lipid class FFA): 6.8 percentage of total fatty acids | 18:1n7 (Adipose, lipid class FFA): 2.8 percentage of total fatty acids | 18:1n9 (Adipose, lipid class FFA): 30.7 percentage of total fatty acids | Saturates (Adipose, lipid class FFA): 31.8 percentage of total fatty acids | Total (Adipose, lipid class FFA): 100.0 percentage of total fatty acids | Total n7 (Adipose, lipid class FFA): 12.0 percentage of total fatty acids | Total n9 (Adipose, lipid class FFA): 31.5 percentage of total fatty acids | 14:0 (Adipose, lipid class PL): 1.4 percentage of total fatty acids | 16:0 (Adipose, lipid class PL): 19.9 percentage of total fatty acids | 16:1n7 (Adipose, lipid class PL): 5.5 percentage of total fatty acids | 18:0 (Adipose, lipid class PL): 16.1 percentage of total fatty acids | 18:1n7 (Adipose, lipid class PL): 1.9 percentage of total fatty acids | 18:1n9 (Adipose, lipid class PL): 14.6 percentage of total fatty acids | Saturates (Adipose, lipid class PL): 39.0 percentage of total fatty acids | Total (Adipose, lipid class PL): 100.0 percentage of total fatty acids | Total n7 (Adipose, lipid class PL): 7.4 percentage of total fatty acids | Total n9 (Adipose, lipid class PL): 15.3 percentage of total fatty acids | 14:0 (Adipose, lipid class TAG): 3.3 percentage of total fatty acids | 16:0 (Adipose, lipid class TAG): 26.9 percentage of total fatty acids | 16:1n7 (Adipose, lipid class TAG): 10.8 percentage of total fatty acids | 18:0 (Adipose, lipid class TAG): 2.9 percentage of total fatty acids | 18:1n7 (Adipose, lipid class TAG): 2.0 percentage of total fatty acids | 18:1n9 (Adipose, lipid class TAG): 31.9 percentage of total fatty acids | Saturates (Adipose, lipid class TAG): 33.3 percentage of total fatty acids | Total (Adipose, lipid class TAG): 100.0 percentage of total fatty acids | Total n7 (Adipose, lipid class TAG): 12.9 percentage of total fatty acids | Total n9 (Adipose, lipid class TAG): 32.2 percentage of total fatty acids | lipid concentrations in plasma (CL316,243 4 weeks vs controls): decreased | lipid synthesis in tissues (CL316,243 4 weeks vs controls (Table 7)): decreased | vaccenic acid concentrations in these lipid classes (CL316,243 4 weeks vs controls, heart, liver, adipose, plasma): typically decreased | 14:0 (Heart, CE): 59.3 nanomoles per gram | 16:0 (Heart, CE): 187.4 nanomoles per gram | 16:1n7 (Heart, CE): 36.2 nanomoles per gram | 18:0 (Heart, CE): 85.3 nanomoles per gram | 18:1n7 (Heart, CE): 19.6 nanomoles per gram | 18:1n9 (Heart, CE): 389.5 nanomoles per gram | Saturates (Heart, CE): 366.8 nanomoles per gram | Total n7 (Heart, CE): 55.8 nanomoles per gram | Total n9 (Heart, CE): 405.7 nanomoles per gram | Total nMole of FA (Heart, CE): 1226.9 nanomoles per gram | 14:0 (Heart, CL): 76.3 nanomoles per gram | 16:0 (Heart, CL): 231.1 nanomoles per gram | 16:1n7 (Heart, CL): 204.0 nanomoles per gram | 18:0 (Heart, CL): 397.1 nanomoles per gram | 18:1n7 (Heart, CL): 381.8 nanomoles per gram | 18:1n9 (Heart, CL): 956.2 nanomoles per gram | Saturates (Heart, CL): 776.3 nanomoles per gram | Total n7 (Heart, CL): 585.8 nanomoles per gram | Total n9 (Heart, CL): 1011.4 nanomoles per gram | Total nMole of FA (Heart, CL): 2975.1 nanomoles per gram | 14:0 (Heart, FFA): 181.4 nanomoles per gram | 16:0 (Heart, FFA): 1012.4 nanomoles per gram | 16:1n7 (Heart, FFA): 156.8 nanomoles per gram | 18:0 (Heart, FFA): 427.8 nanomoles per gram | 18:1n7 (Heart, FFA): 139.4 nanomoles per gram | 18:1n9 (Heart, FFA): 1964.0 nanomoles per gram | Saturates (Heart, FFA): 1683.2 nanomoles per gram | Total n7 (Heart, FFA): 296.1 nanomoles per gram | Total n9 (Heart, FFA): 2017.6 nanomoles per gram | Total nMole of FA (Heart, FFA): 6044.8 nanomoles per gram | 14:0 (Heart, PC): 94.6 nanomoles per gram | 16:0 (Heart, PC): 8127.9 nanomoles per gram | 16:1n7 (Heart, PC): 108.7 nanomoles per gram | 18:0 (Heart, PC): 5235.9 nanomoles per gram | 18:1n7 (Heart, PC): 568.2 nanomoles per gram | 18:1n9 (Heart, PC): 1990.2 nanomoles per gram | Saturates (Heart, PC): 13577.6 nanomoles per gram | Total n7 (Heart, PC): 676.9 nanomoles per gram | Total n9 (Heart, PC): 2052.1 nanomoles per gram | Total nMole of FA (Heart, PC): 15087.3 nanomoles per gram | 14:0 (Heart, PE): 27.5 nanomoles per gram | 16:0 (Heart, PE): 1814.0 nanomoles per gram | 16:1n7 (Heart, PE): 59.6 nanomoles per gram | 18:0 (Heart, PE): 5241.4 nanomoles per gram | 18:1n7 (Heart, PE): 250.5 nanomoles per gram | 18:1n9 (Heart, PE): 934.9 nanomoles per gram | 14:0 (Heart, PL): 170.5 nanomoles per gram | 16:0 (Heart, PL): 10799.7 nanomoles per gram | 16:1n7 (Heart, PL): 344.7 nanomoles per gram | 18:0 (Heart, PL): 13320.8 nanomoles per gram | 18:1n7 (Heart, PL): 1181.0 nanomoles per gram | 18:1n9 (Heart, PL): 4121.5 nanomoles per gram | 14:0 (Heart, PS/I): 33.4 nanomoles per gram
